Tests used:
TYRO3 = target: T1, TYRO3 (Homo sapiens, UniProt Q06418); assay: TR-FRET kinase activity assay, TYRO3; type: biochemical; details: ATP at Km, 60 minutes
T1 sequence (Q06418 41-890): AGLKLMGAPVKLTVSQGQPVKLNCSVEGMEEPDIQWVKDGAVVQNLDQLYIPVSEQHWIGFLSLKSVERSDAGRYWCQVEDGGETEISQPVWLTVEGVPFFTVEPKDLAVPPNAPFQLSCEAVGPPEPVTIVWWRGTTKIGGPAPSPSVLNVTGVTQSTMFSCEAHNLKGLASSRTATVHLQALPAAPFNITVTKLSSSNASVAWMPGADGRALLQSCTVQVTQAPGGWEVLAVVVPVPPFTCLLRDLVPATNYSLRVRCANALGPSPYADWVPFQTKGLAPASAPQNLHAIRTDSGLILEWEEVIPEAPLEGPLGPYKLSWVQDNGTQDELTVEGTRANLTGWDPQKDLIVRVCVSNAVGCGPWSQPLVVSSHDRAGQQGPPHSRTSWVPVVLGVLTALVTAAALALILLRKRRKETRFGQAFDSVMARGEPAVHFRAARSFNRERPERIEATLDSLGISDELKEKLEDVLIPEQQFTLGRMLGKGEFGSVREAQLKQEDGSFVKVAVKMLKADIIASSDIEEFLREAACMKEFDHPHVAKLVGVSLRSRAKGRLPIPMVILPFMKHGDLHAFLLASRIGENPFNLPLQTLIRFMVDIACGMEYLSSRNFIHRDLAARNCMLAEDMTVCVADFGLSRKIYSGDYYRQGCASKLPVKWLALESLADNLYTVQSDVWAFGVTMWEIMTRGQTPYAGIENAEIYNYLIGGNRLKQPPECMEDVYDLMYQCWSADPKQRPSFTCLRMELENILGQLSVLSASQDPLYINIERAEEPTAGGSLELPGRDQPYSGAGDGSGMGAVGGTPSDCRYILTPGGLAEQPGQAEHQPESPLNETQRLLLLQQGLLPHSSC
Procedure, shortened: (§1)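 Recombinant human kinases, fluorescent peptide substrate, ATP at Km; 1 h RT, pH 7.5. EDTA-quenched, Eu antibody added, TR-FRET read; IC50 determined.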

MERTK = target: T2, MERTK (Homo sapiens, UniProt Q12866); assay: TR-FRET kinase activity assay, MERTK; type: biochemical; details: for IC50: TR-FRET activity assay, ATP at Km, 60 minutes, read-out: Mer IC50; for FLT3/Mer ratio (FLT3 IC50/Mer IC50): ratio calculated as FLT3 IC50/Mer IC50
T2 sequence (Q12866 21-999): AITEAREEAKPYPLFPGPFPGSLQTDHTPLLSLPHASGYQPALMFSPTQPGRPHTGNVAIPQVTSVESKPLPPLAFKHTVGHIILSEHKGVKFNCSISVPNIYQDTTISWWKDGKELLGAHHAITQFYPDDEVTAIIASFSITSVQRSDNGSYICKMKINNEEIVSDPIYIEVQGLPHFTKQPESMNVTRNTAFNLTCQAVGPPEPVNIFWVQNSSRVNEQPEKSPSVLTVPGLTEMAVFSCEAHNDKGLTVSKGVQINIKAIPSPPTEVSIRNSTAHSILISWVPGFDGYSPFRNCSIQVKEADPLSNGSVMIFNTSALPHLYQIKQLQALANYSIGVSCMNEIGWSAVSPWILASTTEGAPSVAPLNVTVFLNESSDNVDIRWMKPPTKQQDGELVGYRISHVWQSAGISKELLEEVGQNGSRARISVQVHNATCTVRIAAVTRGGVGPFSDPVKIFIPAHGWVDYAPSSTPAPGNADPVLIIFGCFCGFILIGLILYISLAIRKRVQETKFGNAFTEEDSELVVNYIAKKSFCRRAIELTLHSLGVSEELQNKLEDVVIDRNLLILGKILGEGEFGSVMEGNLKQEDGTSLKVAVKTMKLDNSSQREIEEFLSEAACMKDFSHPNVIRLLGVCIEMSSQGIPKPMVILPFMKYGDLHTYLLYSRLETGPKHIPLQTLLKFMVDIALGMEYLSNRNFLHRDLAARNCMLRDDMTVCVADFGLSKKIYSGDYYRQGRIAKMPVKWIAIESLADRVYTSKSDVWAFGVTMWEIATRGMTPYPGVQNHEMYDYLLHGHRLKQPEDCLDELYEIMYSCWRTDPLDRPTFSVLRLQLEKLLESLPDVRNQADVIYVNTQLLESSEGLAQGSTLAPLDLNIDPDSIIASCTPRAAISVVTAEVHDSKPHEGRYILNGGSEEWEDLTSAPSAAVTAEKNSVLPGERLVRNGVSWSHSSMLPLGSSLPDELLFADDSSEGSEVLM
Procedure, shortened: as §1

IC50 (TYRO3) [nM] | IC50 (MERTK) [nM] | FLT3/Mer ratio (FLT3 IC50/Mer IC50) (MERTK) | Structure (SMILES)
≤ 100 | ≤ 100 | +++ (“+++” represents a ratio of >100) | COC[C@H](C)Nc1ncc2c([C@H]3CC[C@H](C(=O)N4CCN(C)CC4)CC3)cc([C@H]3CC[C@H](O)CC3)n2n1 [Compound 606]
≤ 100 | ≤ 100 | +++ (“+++” represents a ratio of >100) | COC[C@H](C)Nc1ncc2c([C@H]3CC[C@@H](C(=O)N4CCN(C)CC4)CC3)cc([C@H]3CC[C@H](O)CC3)n2n1 [Compound 607]
≤ 100 | ≤ 100 | +++ (“+++” represents a ratio of >100) | COCC(C)Nc1ncc2c(-c3ccc(C(C)(C)c4nnc(C)o4)s3)cc(C3CCC(O)CC3)n2n1 (stereo not drawn) [Compound 611]
≤ 100 | ≤ 100 | +++ (“+++” represents a ratio of >100) | COC[C@H](C)Nc1ncc2c(-c3cnn(C(C)(C)C(=O)N4CCCC4)c3)cc([C@H]3CC[C@H](O)CC3)n2n1 [Compound 612]
≤ 100 | ≤ 100 | +++ (“+++” represents a ratio of >100) | C[C@@H](COC(F)F)Nc1ncc2c(-c3cnn(C(C)(C)C(=O)N4CC5(COC5)C4)c3)cc([C@H]3CC[C@H](O)CC3)n2n1 [Compound 613]
≤ 100 | ≤ 100 | +++ (“+++” represents a ratio of >100) | COC[C@H](C)Nc1ncc2c(-c3cnn(C4COC4)c3)cc([C@H]3CC[C@H](O)C(F)(F)C3)n2n1 [Compound 614]
≤ 100 | ≤ 100 | +++ (“+++” represents a ratio of >100) | CCC1(O)CCC(c2cc(-c3cnn(C4COC4)c3)c3cnc(NC(C)COC)nn23)CC1 (stereo not drawn) [Compound 615]
≤ 100 | ≤ 100 | +++ (“+++” represents a ratio of >100) | CC[C@]1(O)CC[C@@H](c2cc(-c3cnn(C4COC4)c3)c3cnc(N[C@@H](C)COC)nn32)CC1 [Compound 616]
≤ 100 | ≤ 100 | +++ (“+++” represents a ratio of >100) | COC[C@H](C)Nc1ncc2c(-c3cnn(C4COC4)c3)cc([C@H]3CC[C@](O)(C(C)C)CC3)n2n1 [Compound 617]
≤ 100 | ≤ 100 | +++ (“+++” represents a ratio of >100) | COC[C@H](C)Nc1ncc2c(-c3cnn(C4COC4)c3)cc([C@H]3CC[C@@](O)(C(C)C)CC3)n2n1 [Compound 618]
≤ 100 | ≤ 100 | +++ (“+++” represents a ratio of >100) | COC[C@H](C)Nc1ncc2c(-c3ccnc(C(C)(C)O)c3)cc([C@H]3CC[C@H](O)CC3)n2n1 [Compound 619]
≤ 100 | ≤ 100 | +++ (“+++” represents a ratio of >100) | COC[C@H](C)Nc1ncc2c(-c3cnn(C(C)(C)C(=O)N4CCC(C)(O)C4)c3)cc([C@H]3CC[C@H](O)CC3)n2n1 (stereo partly drawn) [Compound 620]
≤ 100 | ≤ 100 | +++ (“+++” represents a ratio of >100) | COC[C@H](C)Nc1ncc2c(-c3cnn(C(C)(C)C(=O)N4CCCC(C)(O)C4)c3)cc([C@H]3CC[C@H](O)CC3)n2n1 (stereo partly drawn) [Compound 621]
≤ 100 | ≤ 100 | +++ (“+++” represents a ratio of >100) | COC[C@H](C)Nc1ncc2c(-c3cnn(C(C)(C)C(=O)N4CC(C)(O)C4)c3)cc([C@H]3CC[C@H](O)CC3)n2n1 [Compound 622]
≤ 100 | ≤ 100 | +++ (“+++” represents a ratio of >100) | COC[C@H](C)Nc1ncc2c(-c3cnn(C(C)(C)c4nc(C)co4)c3)cc([C@H]3CC[C@H](O)CC3)n2n1 [Compound 623]
≤ 100 | ≤ 100 | +++ (“+++” represents a ratio of >100) | COC[C@H](C)Nc1ncc2c(-c3cnn(C(C)(C)c4nnc(C)s4)c3)cc([C@H]3CC[C@H](O)CC3)n2n1 [Compound 625]
≤ 100 | ≤ 100 | +++ (“+++” represents a ratio of >100) | COC[C@H](C)Nc1ncc2c(-c3ccnc(S(C)(=O)=O)c3)cc(C3CCC(O)CC3)n2n1 (stereo partly drawn) [Compound 627]
≤ 100 | ≤ 100 | +++ (“+++” represents a ratio of >100) | COC[C@H](C)Nc1ncc2c(-c3cnn(C(C)(C)c4ncc(C)o4)c3)cc(C3CCC(O)CC3)n2n1 (stereo partly drawn) [Compound 628]
≤ 100 | ≤ 100 | +++ (“+++” represents a ratio of >100) | [2H]C([2H])([2H])OCC(C)Nc1ncc2c(-c3ccnc(N4CCOCC4)c3)cc(C3CCC(O)CC3)n2n1 (stereo not drawn) [Compound 629]
≤ 100 | ≤ 100 | +++ (“+++” represents a ratio of >100) | [2H]C([2H])([2H])OCC(C)Nc1ncc2c(-c3cnn(C4COC4)c3)cc(C3CCC(O)CC3)n2n1 (stereo not drawn) [Compound 630]
≤ 100 | ≤ 100 | +++ (“+++” represents a ratio of >100) | COC[C@H](C)Nc1ncc2c(-c3cnn(C(C)(C)c4nnc(N5CCOCC5)o4)c3)cc(C3CCC(O)CC3)n2n1 (stereo partly drawn) [Compound 631]
≤ 100 | ≤ 100 | +++ (“+++” represents a ratio of >100) | COC[C@H](C)Nc1ncc2c(-c3ccnc(N4CC(C)(O)C4)c3)cc(C3CCC(O)CC3)n2n1 (stereo partly drawn) [Compound 632]

Structure (SMILES) | IC50 (TYRO3) [nM] | IC50 (MERTK) [nM] | FLT3/Mer ratio (FLT3 IC50/Mer IC50) (MERTK)
C[C@@H](CC(F)(F)F)Nc1ncc2c(-c3cnn(C(C)(C)C(=O)N4CC5(COC5)C4)c3)cc([C@H]3CC[C@H](O)CC3)n2n1 [Compound 608] | ≤ 100 | ≤ 100 | ++ (“++” represents a ratio of between 10 and 100)
C[C@@H](CC(F)(F)F)Nc1ncc2c(-c3cnn(C(C)(C)C(=O)C4COC4)c3)cc([C@H]3CC[C@@](C)(O)CC3)n2n1 [Compound 609] | ≤ 100 | ≤ 100 | ++ (“++” represents a ratio of between 10 and 100)
C[C@@H](CC(F)(F)F)Nc1ncc2c(-c3cnn(C(C)(C)C(=O)C4COC4)c3)cc([C@H]3CC[C@](C)(O)CC3)n2n1 [Compound 610] | ≤ 100 | ≤ 100 | ++ (“++” represents a ratio of between 10 and 100)
COC[C@H](C)Nc1ncc2c(-c3cnn(C4COC4)c3)cc([C@H]3CCc4[nH]ncc4C3)n2n1 [Compound 624] | ≤ 100 | ≤ 100 | ++ (“++” represents a ratio of between 10 and 100)
C[C@@H](CC(F)(F)F)Nc1ncc2c(-c3cnn(C(C)(C)C(=O)N4CCN(C)CC4)c3)cc(C3CCC(O)CC3)n2n1 (stereo partly drawn) [Compound 626] | ≤ 100 | ≤ 100 | ++ (“++” represents a ratio of between 10 and 100)
